Tests used:
Test in all cases: Antimicrobial spectrum, minimum inhibitory concentration
Assay type in all cases: cell-based
Candida albicans TA = conditions: medium TSA
Text: (§1) TSA = Trypticase soy agar [Baltimore Biologicals
(§2) BTSA = Blood trypticase soy agar

[1] = test system: Corynebacterium diphtheriae Toronto; conditions: medium B-TSA
Text: as §1, §2

[2] = test system: Enterobacter cloacae IFO 12937; conditions: IFO12937, medium TSA
Text: as §1, §2

[3] = test system: Escherichia coli NIHJ JC-2; conditions: NIHJJC2, medium TSA
Text: as §1, §2

Escherichia coli O-111 = conditions: O111, medium TSA
Text: as §1, §2

Klebsiella pneumoniae DT = conditions: medium TSA
Text: as §1, §2

[4] = test system: Proteus mirabilis IFO 3849; conditions: IFO3849, medium TSA
Text: as §1, §2

[5] = test system: Proteus vulgaris IFO 3988; conditions: IFO3988, medium TSA
Text: as §1, §2

[6] = test system: Pseudomonas aeruginosa U 31; conditions: U31, medium TSA
Text: as §1, §2

[7] = test system: Pseudomonas morganii IFO 3168; conditions: IFO3168, medium TSA
Text: as §1, §2

[8] = test system: Serratia marcescens IFO 12648; conditions: IFO12648, medium TSA
Text: as §1, §2

[9] = test system: Staphylococcus aureus FDA209P; conditions: medium TSA (Trypticase soy agar)
Text: as §1, §2

[10] = test system: Streptococcus pyogenes E-14; conditions: E14, medium B-TSA (Blood trypticase soy agar)
Text: as §1, §2

[11] = test system: Streptococcus pyogenes S-8; conditions: S8, medium B-TSA
Text: as §1, §2

SMILES: CCN1CCN(C(=O)N[C@@H](C(=O)NC2(OC)CN(S(=O)(=O)O)C2=O)c2ccccc2)C(=O)C1=O (single isomer, unassigned) [Compound, sodium 3-[D(-)-2-(4-ethyl-2,3-dioxo-1-piperazinocarboxamido)phenylacetamido]-3-methoxy-2-oxoazetidine-1-sulfonate]
- MIC (Candida albicans TA): > 100 µg/mL
- MIC [1]: 50 µg/mL
- MIC [2]: > 100 µg/mL
- MIC [3]: 50 µg/mL
- MIC (Escherichia coli O-111): 12.5 µg/mL
- MIC (Klebsiella pneumoniae DT): 12.5 µg/mL
- MIC [4]: 50 µg/mL
- MIC [5]: 12.5 µg/mL
- MIC [6]: > 100 µg/mL
- MIC [7]: > 100 µg/mL
- MIC [8]: 50 µg/mL
- MIC [9]: 100 µg/mL
- MIC [10]: 50 µg/mL
- MIC [11]: 50 µg/mL
